Assay: Antiviral activity using H1HeLa cells (ATCC) infected with HRV-14

Row | Compound | EC50 [µM]
1 | NC(=O)c1ccc2c(c1)C=CC2=O [1-Oxo-1H-indene-5-carboxylic acid amide] | > 20
2 | CCOC(=O)/C=C/c1cc(O)cc(C(N)=O)c1 [3-(3-Carbamoyl-5-hydroxy-phenyl)-acrylic acid ethyl ester] | > 100
3 | CCOC(=O)/C=C/c1cc(CO)cc(C(N)=O)c1 [3-(3-Carbamoyl-5-hydroxymethyl-phenyl)-acrylic acid ethyl ester] | > 100
4 | CCOC(=O)/C(C#N)=C/c1cccc(C(N)=O)c1 [3-(3-Carbamoyl-phenyl)-2-cyano-acrylic acid ethyl ester] | > 100
5 | NC(=O)c1cccc(/C=C/C(=O)OCCO)c1 [3-(3-Carbamoyl-phenyl)-acrylic acid 2-hydroxy-ethyl ester] | 20
6 | NC(=O)c1cccc(/C=C/C(=O)OCc2ccccc2)c1 [3-(3-Carbamoyl-phenyl)-acrylic acid benzyl ester] | 5.6
7 | CCOC(=O)/C=C/c1cccc(C(N)=O)c1 [3-(3-Carbamoyl-phenyl)-acrylic acid ethyl ester] | 15.9
8 | COC(=O)/C=C/c1cccc(C(N)=O)c1 [3-(3-Carbamoyl-phenyl)-acrylic acid methyl ester] | 150
9 | NC(=O)c1cccc(/C=C/C(=O)OCCc2ccccc2)c1 [3-(3-Carbamoyl-phenyl)-acrylic acid phenethyl ester] | 100
10 | NC(=O)c1cccc(/C=C/C(=O)c2ccco2)c1 [3-(3-Furan-2-yl-3-oxo-propenyl)-benzamide] | > 71
11 | NC(=O)c1cccc(/C=C/C(=O)c2ccccc2)c1 [3-(3-Oxo-3-phenyl-propenyl)-benzamide] | 28
12 | NC(=O)c1cccc(/C=C/C(=O)c2ccccn2)c1 [3-(3-Oxo-3-pyridin-2-yl-propenyl)-benzamide] | 50
13 | CC(=O)C=Cc1cccc(C(N)=O)c1 [3-(3-Oxo-but-1-enyl)-benzamide] | 32
14 | CCOC(=O)/C=C/c1ccc(OCc2ccccc2)c(C(N)=O)c1 [3-(4-Benzyloxy-3-carbamoyl-phenyl)-acrylic acid ethyl ester] | > 320
15 | CCOC(=O)/C=C/c1cc(C(N)=O)ccc1C [3-(5-Carbamoyl-2-methyl-phenyl)-acrylic acid ethyl ester] | > 100
16 | CN(C)c1ccc(C(=O)/C=C/c2cccc(C(N)=O)c2)cc1 [3-[3-(4-Dimethylamino-phenyl)-3-oxo-propenyl]-benzamide] | > 15
17 | COc1ccc(C(=O)/C=C/c2cccc(C(N)=O)c2)cc1 [3-[3-(4-Methoxy-phenyl)-3-oxo-propenyl]-benzamide] | > 22
18 | CCOC(=O)/C=C/c1cc(CN2CCN(c3ccccn3)CC2)cc(C(N)=O)c1 [3-[3-Carbamoyl-5-(4-pyridin-2-yl-piperazin-1-ylmethyl)-phenyl]-acrylic acid ethyl ester] | 2.5
19 | CCOC(=O)/C=C/c1cc(CN2CCN(c3ncccn3)CC2)cc(C(N)=O)c1 [3-[3-Carbamoyl-5-(4-pyrimidin-2-yl-piperazin-1-ylmethyl)-phenyl]-acrylic acid ethyl ester] | 1
20 | CCOC(=O)/C=C/c1cc(CSc2nnc(-c3ccccn3)o2)cc(C(N)=O)c1 [3-[3-Carbamoyl-5-(5-pyridin-2-yl-[1,3,4]oxadiazol-2-ylsulfanylmethyl)-phenyl]-acrylic acid ethyl ester] | 5.6
21 | CCOC(=O)/C=C/c1cc(CN2CCN(c3ccccc3C#N)CC2)cc(C(N)=O)c1 [3-{3-Carbamoyl-5-[4-(2-cyano-phenyl)-piperazin-1-ylmethyl]-phenyl}-acrylic acid ethyl ester] | 0.6
22 | CCOC(=O)/C=C/c1cc(CN(CC)Cc2ccncc2)cc(C(N)=O)c1 [3-{3-Carbamoyl-5-[(ethyl-pyridin-4-ylmethyl-amino)-methyl]-phenyl}-acrylic acid ethyl ester] | 5.8
23 | CCOC(=O)/C=C/c1cc(CN2CCN(C(=O)OCC)CC2)cc(C(N)=O)c1 [4-[3-Carbamoyl-5-(2-ethoxycarbonyl-vinyl)-benzyl]-piperazine-1-carboxylic acid ethyl ester] | 1.8

Reference: BindingDB's records for doi:10.1021/jm9903242 (Agouron Pharmaceuticals, 2000)
